Assay results from US20240352053A1, “SALT AND CRYSTAL FORM OF EGFR INHIBITOR, AND COMPOSITION AND USE THEREOF” (BETTA PHARMACEUTICALS CO., LTD, priority 2021, published 2024).
Where two headings read alike, the source gives them in different places. Each block holds one compound with its values, some of them ahead of it.

Experiments:
[1] = Pharmacokinetic test, oral administration in male SD rats; type: in vivo, rat; conditions: plasma, 50 mg/kg, distilled water
Experimental: Male SD rats purchased from Beijing Weitonglihua Experimental Animal Technology Co Ltd. were used for oral administration PK studies. The dose was 50 mg/kg, the preparation was distilled water, and the compound concentrations corresponding to the test compounds were 5 mg/mL, ready for use. Oral administration is by oral gavage at 10 mL/kg. Blood was collected through the rat orbital venous plexus, and […] was taken at each time point into an EDTA anticoagulant tube. The blood collection time is: 15 min, 30 min, 1 h, 2 h, 4 h, 7 h, 24 h, 30 h, 48 h, centrifuge at 4000 rpm for 10 min, take the supernatant to obtain 100 μL plasma, and store it in a −80° C. refrigerator, spare. After precipitating the protein from the above plasma sample with acetonitrile, take the supernatant and mix it with water 1:1, and take 10 μL for LC-MS/MS detection.

[2] = system: Ba/F3-Δ19del/T790M/C797S cells; conditions: 72 hours, CTG; data recorded in PCT/CN2021/075994; read-out: Ba/F3/EGFR Δ19del/T790M/C797S IC50; cited from earlier work
[3] = system: Ba/F3 EGFR WT cells; conditions: 72 hours, CTG; data recorded in PCT/CN2021/075994; read-out: BaF3 EGFR WT IC50; cited from earlier work
[4] = system: human epidermal cancer cell A431 carrying EGFR WT; conditions: 72 hours, CTG; data recorded in PCT/CN2021/075994; cited from earlier work
[5] = Measurement of crystal form stability (HPLC chemical purity, XRPD); type: physicochemical; conditions: for Chemical purity (%) 0 days: HPLC
Experimental: The X-ray powder diffraction pattern detection equipment and method of the present invention are as shown in the X-ray powder diffraction table in the instrument and analysis method. After the test compounds are placed under different temperature, humidity and light conditions for a period of time, the purity is tested. Purity testing method: Use high-performance liquid chromatography (HPLC) to detect the chemical purity of this product. Determine according to high performance liquid chromatography (“Chinese Pharmacopoeia” 2020 edition, Part IV, General Chapter 0512). […] XRPD characterization was performed on the samples after being placed under different temperature, humidity and light conditions for a period of time.

[6] = DVS test (dynamic vapor sorption); type: physicochemical
Text: Take crystal form A of the compound represented by Formula III for DVS measurement, and the obtained DVS spectrum is shown in FIG. 5-2.

Structure (SMILES): COc1cc(N2CCC(N3CCN(C)CC3)CC2)c(C)cc1Nc1ncc(Br)c(Nc2ccc3nc(C4CC4)ccc3c2P(C)(C)=O)n1.O=C(O)C[C@H](O)C(=O)O
AUC(0-t) ([1]; male, SD, rat, po): 27400 ng·h/mL | Cmax ([1]; male, SD, rat, po, read-out: Cmax): 1990 ng/mL

Structure (SMILES): COc1cc(N2CCC(N3CCN(C)CC3)CC2)c(C)cc1Nc1ncc(Br)c(Nc2ccc3nc(C4CC4)ccc3c2P(C)(C)=O)n1 [(6-((5-bromo-2-((2-methoxy-5-methyl-4-(4-(4-methylpiperazin-1-yl))piperidin-1-yl)phenyl)amino)pyrimidin-4-yl)amino)-2-cyclopropylquinolin-5-yl)dimethylphosphine oxide]
IC50 [2]: 6.8 nM | IC50 [3]: 151 nM | IC50 [4]: 1130 nM

Structure (SMILES): CCc1cc(Nc2ncc(Br)c(Nc3ccc4ncccc4c3P(C)(C)=O)n2)c(OC)cc1N1CCC(N2CCN(C)CC2)CC1 [Control Example 1, reference compound]
IC50 [2]: 9 nM | IC50 [3]: 39.9 nM | IC50 [4]: 245 nM

The remaining lines, values ahead:

Chemical purity (%) 0 days [5]: 98.85% | Chemical purity (%) 60° C. ([5]; 60° C., placement time 13 days): 98.80% | Chemical purity (%) 92.5% RH ([5]; placement time 13 days): 98.98% | Chemical purity (%) 4500 lx illumination ([5]; placement time 13 days): 98.83% | AUClast [1]: 47593 ng·h/mL | Cmax [1]: 2557 ng/mL | hygroscopic weight gain ([6]; 25° C./80% RH): about 3.43% | sample weight after placement in DVS ([6]; 25° C./80% RH for 24 hours): remained basically unchanged | crystal form after placement in DVS ([6]; 25° C./80% RH, after 24 hours): did not change | crystal form before and after the DVS test ([6]; DVS, 25° C.): does not change
Structure (SMILES): COc1cc(N2CCC(N3CCN(C)CC3)CC2)c(C)cc1Nc1ncc(Br)c(Nc2ccc3nc(C4CC4)ccc3c2P(C)(C)=O)n1.O=C(O)C[C@H](O)C(=O)O [Crystal form A of the compound represented by formula III]

Chemical purity (%) 0 days [5]: 99.59% | Chemical purity (%) 92.5% RH ([5]; placement time 10 days): 99.59% | Chemical purity (%) 4500 lx illumination ([5]; placement time 10 days): 96.05%
Structure (SMILES): COc1cc(N2CCC(N3CCN(C)CC3)CC2)c(C)cc1Nc1ncc(Br)c(Nc2ccc3nc(C4CC4)ccc3c2P(C)(C)=O)n1.O=C(O)C[C@H](O)C(=O)O [Crystal form J of the compound represented by formula III]
